{"source": "patent US20050222383A1", "about": "“Prostasin substrates and inhibitors” (IRM LLC, priority 2004, published 2005)", "molecules": {"B1": {"name": "α1-antichymotrypsin (protein, UniProt P01011 24-423, looked up)", "Alpha-1-antichymotrypsin": "HPNSPLDEENLTQENQDRGTHVDLGLASANVDFAFSLYKQLVLKAPDKNVIFSPLSISTALAFLSLGAHNTTLTEILKGLKFNLTETSEAEIHQSFQHLLRTLNQSSDELQLSMGNAMFVKEQLSLLDRFTEDAKRLYGSEAFATDFQDSAAAKKLINDYVKNGTRGKITDLIKDLDSQTMMVLVNYIFFKAKWEMPFDPQDTHQSRFYLSKKKWVMVPMMSLHHLTIPYFRDEELSCTVVELKYTGNASALFILPDQDKMEEVEAMLLPETLKRWRDSLEFREIGELYLPKFSISRDYNLNDILLQLGIEEAFTSKADLSGITGARNLAVSQVVHKAVLDVFEEGTEASAATAVKITLLSALVETRTIVRFNRPFLMIIVPTDTQNIFFMSKVTNPKQA"}}, "key": {"prostasin [1]": {"biological_target": "T1, prostasin (Homo sapiens, UniProt Q16651)", "T1 construct": "eliminate the N-terminal signal peptide domain and light chain and the C-terminal GPI signal domain; honeybee melittin signal peptide (21 aa) (N); made in house; host or cells: Sf9 insect cells, baculovirus (Bac-to-Bac, pFastBac1)", "T1 sequence (Q16651 45-322 limits assumed)": "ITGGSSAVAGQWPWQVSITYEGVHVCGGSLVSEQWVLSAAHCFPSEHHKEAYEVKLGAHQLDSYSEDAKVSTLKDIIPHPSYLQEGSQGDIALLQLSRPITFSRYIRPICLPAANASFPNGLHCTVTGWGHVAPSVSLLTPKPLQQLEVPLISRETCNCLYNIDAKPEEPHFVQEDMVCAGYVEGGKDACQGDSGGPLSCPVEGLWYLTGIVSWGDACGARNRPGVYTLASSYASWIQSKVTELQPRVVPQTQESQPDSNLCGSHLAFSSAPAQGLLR", "assay": "Cation/anion inhibition of prostasin activity against Ac-KHYR-acc", "assay_type": "biochemical", "settings": "read-out: Inhibition constants"}, "prostasin [2]": {"biological_target": "T1, prostasin", "assay": "Assays with transition metals, prostasin activity with Ac-KHYR-acmc", "assay_type": "biochemical", "settings": "for enhancement effect: increase of enzymatic activity: Ac-KHYR-acmc substrate, sub inhibitory metal ion concentrations; for increases in IC50 values: assays with KHYR substrate", "protocol": "(§1) Proteolytic activity of the purified prostasin was monitored by measuring the accumulation of the fluorophore 7-amino-3-carbamoylmethyl-4-methylcoumarin (acmc) or 7-amino-4-carbamoylmethylcoumarin (acc) produced by the cleavage of the tetrapeptide substrate Ac-KHYR-acmc, Ac-KHYR-acc or Ac-PRLR-acmc in assay buffer (50 mM Tris-Cl pH 9.0, 0.25% CHAPS; 10 mM CHES pH 9.0 (37° C.), 0.25% CHAPS; or 10 mM Hepes pH 7.4 (37° C.), 0.25% CHAPS) at 37° C. Assays were run in 96 or 384-well black microtiter plates. Data was collected with a Gemini XS plate reader (Molecular Devices) at λex=380 nm and λem=450 nm."}, "prostasin [3]": {"biological_target": "T1, prostasin", "assay": "Prostasin assayed in tetrapeptide substrate libraries with a set concentration of sodium, calcium or zinc", "assay_type": "biochemical", "settings": "for effect on substrate specificity profile / decrease in activity across the libraries: tetrapeptide substrate libraries; for decrease in activity across the libraries: set concentration of ion", "protocol": "P1-P4-Fluorogenic substrate libraries were synthesized as previously described (Wang et al, J. Biol. Chem., 278: 15800-15808, 2003). Prostasin was diluted in assay buffer and added to the library plates. In the two-position fixed tetrapeptide substrate library, the final substrate concentration was approximately 0.25 μM/substrate/well with a total of 361 substrates per well. Each variable position had one of 19 amino acids with cysteine excluded and methionine replaced by its isostere norleucine.\nFurther, prostasin was assayed in the tetrapeptide substrate libraries with a set concentration of sodium, calcium or zinc to determine the effect of each on overall substrate specificity."}, "prostasin [4]": {"biological_target": "T1, prostasin", "assay": "Inhibition assays of macromolecular inhibitors, prostasin activity against Ac-KHYR-acmc", "assay_type": "biochemical", "settings": "Ac-KHYR-acmc substrate, Tris-CHAPS buffer; read-out: classical inhibition constants (Ki)", "protocol": "as §1\nThe inhibition constants of macromolecular inhibitors were calculated for prostasin. Prostasin activity against Ac-KHYR-acmc was measured in Tris-CHAPS buffer, as in “Enzyme Assays,” in the presence of 10 μM-170 pM aprotinin and soybean trypsin inhibitor (SBTI), 1 μM-17 pM α1-antitrypsin, and 200 nM-3.3 pM α1-antichymotrypsin. Rates were plotted in Prism (GraphPad) and classical inhibition constants (Ki) were calculated using the results of non-linear regression."}, "[5]": {"test_system": "Xenopus kidney epithelial cell line", "settings": "exposure of the apical membrane; cited from earlier work"}, "prostasin [6]": {"biological_target": "T1, prostasin", "assay": "Michaelis-Menten kinetics of KHYR-acmc and PRLR-acmc in the presence of zinc", "assay_type": "biochemical", "protocol": "as §1\nThe effect of zinc on the Michelis-Menten kinetics of KHYR-acmc and PRLR-acmc was measured in the presence of 20 μM zinc(II). […] The kcat of KHYR-acmc was 2.7 fold higher and the kcat of PRLR-acmc was 1.6 fold lower. These changes translated into a 30-fold increase in specificity for KHYR over PRLR in the presence of zinc."}, "[7]": {"settings": "Ac-KHYR-acc substrate, CHES-CHAPS buffer, 37° C."}, "[8]": {"settings": "in the presence of 20 μM zinc(II)"}}, "data": [{"molecule": "[Cl-].[Li+]", "note": "[LiCl]", "values": [{"measurement": "Ki", "setting": "prostasin [1]; [7]", "result": 2400, "unit": "µM"}]}, {"molecule": "[Cl-].[Na+]", "note": "[NaCl]", "values": [{"measurement": "Ki", "setting": "prostasin [1]", "result": 5300, "unit": "µM"}]}, {"molecule": "[Cl-].[Cl-].[Mg+2]", "note": "[MgCl2]", "values": [{"measurement": "Ki", "setting": "prostasin [1]; [7]", "result": 390, "unit": "µM"}]}, {"molecule": "[Co+2]", "note": "[cobalt]", "values": [{"measurement": "enhancement effect: increase of enzymatic activity", "setting": "prostasin [2]", "result": "No enhancement in activity"}, {"measurement": "increases in IC50 values", "setting": "prostasin [2]", "result": 10, "unit": "fold"}]}, {"molecule": "[Ca+2].[Cl-].[Cl-]", "note": "[CaCl2]", "values": [{"measurement": "Ki", "setting": "prostasin [1]; [7]", "result": 260, "unit": "µM"}]}, {"molecule": "[I-].[Na+]", "note": "[NaI]", "values": [{"measurement": "Ki", "setting": "prostasin [1]; [7]", "result": 4500, "unit": "µM"}]}, {"molecule": "[F-].[Na+]", "note": "[NaF]", "values": [{"measurement": "Ki", "setting": "prostasin [1]; [7]", "result": 4200, "unit": "µM"}]}, {"molecule": "[Cl-].[Cl-].[Co+2]", "note": "[CoCl2]", "values": [{"measurement": "Ki", "setting": "prostasin [1]", "result": 5, "unit": "µM"}]}, {"molecule": "[Zn+2]", "note": "[zinc]", "values": [{"measurement": "increases in IC50 values", "setting": "prostasin [2]", "result": 200, "unit": "fold"}, {"measurement": "relative increase in the activity of substrates with arginine in P1 and histidine in P3", "setting": "prostasin [3]; P1-P3 library", "result": "three fold relative increase"}, {"measurement": "effect on substrate specificity profile", "setting": "prostasin [3]", "result": "did not alter the specificity profiles"}]}, {"molecule": "[Ca+2]", "note": "[calcium]", "values": [{"measurement": "effect on substrate specificity profile", "setting": "prostasin [3]", "result": "Neither sodium nor calcium changed the substrate profile"}, {"measurement": "decrease in activity across the libraries", "setting": "prostasin [3]", "result": "25-35%"}]}, {"molecule": "aprotinin", "values": [{"measurement": "Ki", "setting": "prostasin [4]", "result": 0.0025, "unit": "µM"}, {"measurement": "transepithelial sodium transport", "setting": "[5]", "result": "reduces transepithelial sodium transport"}]}, {"molecule": "[Ni+2]", "note": "[nickel]", "values": [{"measurement": "enhancement effect: increase of enzymatic activity", "setting": "prostasin [2]", "result": 1.4, "unit": "fold"}, {"measurement": "increases in IC50 values", "setting": "prostasin [2]", "result": 100, "unit": "fold"}]}, {"molecule": "[Cu+2]", "note": "[copper]", "values": [{"measurement": "increases in IC50 values", "setting": "prostasin [2]", "result": 25, "unit": "fold"}]}, {"molecule": "Ac-PRLR-acmc", "values": [{"measurement": "increase in the Km", "setting": "prostasin [6]; [8]", "result": 2, "unit": "fold"}, {"measurement": "kcat lower", "setting": "prostasin [6]; [8]", "result": 1.6, "unit": "fold"}]}, {"molecule": "[Cl-].[K+]", "note": "[KCl]", "values": [{"measurement": "Ki", "setting": "prostasin [1]; [7]", "result": 5800, "unit": "µM"}]}, {"molecule": "Ac-KHYR-acmc", "values": [{"measurement": "decrease in the Km", "setting": "prostasin [6]; [8]", "result": 4, "unit": "fold"}, {"measurement": "kcat higher", "setting": "prostasin [6]; [8]", "result": 2.7, "unit": "fold"}, {"measurement": "increase in specificity for KHYR over PRLR", "setting": "prostasin [6]; in the presence of zinc", "result": 30, "unit": "fold"}]}, {"molecule": "[Na+]", "note": "[sodium]", "values": [{"measurement": "effect on substrate specificity profile", "setting": "prostasin [3]", "result": "Neither sodium nor calcium changed the substrate profile"}, {"measurement": "decrease in activity across the libraries", "setting": "prostasin [3]", "result": "50-60%"}]}, {"molecule": "B1", "values": [{"measurement": "Ki", "setting": "prostasin [4]", "result": "> 0.2", "unit": "µM"}]}]}
